# Experimental data published in paper PMC10726920 (Cancer Medicine, 2023).
# System: patients with acute lymphoblastic leukemia
# Experiment: Adverse events (CTCAE version 4.0), Phase II study NCI-9775 of sapanisertib monotherapy
# Type: in vivo
# Protocol: Responders could continue on the same dose or proceed to allogeneic hematopoietic cell transplant if available. Non‐responders (but tolerating drug) could increase their dose to 4 mg orally for 21 days every 28 days (dose level + 1) starting in Cycle 3 and 4 mg orally continuously (dose level + 2) starting in Cycle 5 (if they tolerated dose level + 1). Dose reduction was recommended for toxicity (dose level − 1: 2 mg daily for 21 days every 28 days; dose level − 2: 2 mg daily for 5 days/week for 3 weeks every 4 weeks). […] Intrathecal chemotherapy was allowed per institutional standard policies. In‐home blood glucose monitoring was performed daily to monitor blood sugar (a glucometer was given to every patient on the study). Discontinuation of therapy was recommended for disease progression, severe toxicity, lack of response, proceeding to hematopoietic cell transplant, or prolonged delay of the subsequent cycle (>1 month delay for therapy‐related toxicity or >2 months delay for unrelated toxicity).
# The primary endpoint was the proportion of successes, which was estimated by the number of successes divided by the total number of evaluable patients. Secondary endpoints of duration of response (CR or CRi) and overall survival (OS) were evaluated using Kaplan–Meier techniques; the frequency of proceeding to allogeneic stem cell transplant after achieving response and adverse events (AEs), as evaluated using reported the NCI Common Terminology Criteria for Adverse Events (CTCAE) version 4.0, were presented using descriptive statistics.
# [1] = Grade 3–4, at least possibly related
# [2] = Grade >2 hematological, abstract
# [3] = grade 3–4 non‐hematologic, abstract
# [4] = possibly related, B-Cell, 10 evaluable
# [5] = possibly related, T-Cell, 5 evaluable
# [6] = treatment-related, 15 evaluable
compound,measurement,setting,value
CC(C)n1nc(-c2ccc3oc(N)nc3c2)c2c(N)ncnc21 [sapanisertib],patients with a grade 3 or higher AE related to the study drug,15 evaluated,9 patients
same,patients with at least 1 grade 3 AE,15 evaluated,15 patients
same,"anemia, patients",[1],4
same,"leukocytosis, patients",[1],1
same,"leukopenia, patients",[1],2
same,"lymphopenia, patients",[1],2
same,"neutropenia, patients",[1],1
same,"thrombocytopenia, patients",[1],4
same,"abdominal pain, patients",Grade 3–4 treatment‐related,1
same,"anorexia, patients",Grade 3–4 treatment‐related,1
same,"bilirubin increase, patients",Grade 3–4 treatment‐related,1
same,"confusion, patients",Grade 3–4 treatment‐related,1
same,"delirium, patients",Grade 3–4 treatment‐related,1
same,"febrile neutropenia, patients",Grade 3–4 treatment‐related,1
same,"fibrinogen decrease, patients",Grade 3–4 treatment‐related,1
same,"hyperglycemia, patients",Grade 3–4 treatment‐related,2
same,"mucositis, patients",Grade 3–4 treatment‐related,3
same,"pneumonitis, patients",Grade 3–4 treatment‐related,1
same,"thoracic disease, patients",Grade 3–4 treatment‐related,1
same,"leukopenia, patients",[2],3
same,"lymphopenia, patients",[2],2
same,"neutropenia, patients",[2],1
same,"thrombocytopenia, patients",[2],1
same,patients with at least one grade ≥3 non‐hematologic AE,Six of 11 patients in clearance-toxicity analysis,54.5%
same,"Hyperglycemia, percent of patients","any grade, discussion",25%
same,"hyperglycemia, patients","any grade, discussion",4
same,Hyperglycemia G2,discussion,2 patients
same,Hyperglycemia G3,discussion,2 patients
same,median time to hyperglycemia,discussion,6 days
same,mucositis,discussion,3 patients
same,anorexia,[3],1 patient
same,confusion,[3],1 patient
same,hepatic failure,[3],1 patient
same,hyperglycemia,[3],2 patients
same,mucositis,[3],3 patients
same,pneumonitis,[3],1 patient
same,seizures,[3],1 patient
same,Abdominal pain grade 3,[4],0 (0%) N (%)
same,Abdominal pain grade 4,[4],0 (0%) N (%)
same,Abdominal pain grade 5,[4],0 (0%) N (%)
same,Anemia grade 3,[4],1 (10%) N (%)
same,Anemia grade 4,[4],0 (0%) N (%)
same,Anemia grade 5,[4],0 (0%) N (%)
same,Anorexia grade 3,[4],1 (10%) N (%)
same,Anorexia grade 4,[4],0 (0%) N (%)
same,Anorexia grade 5,[4],0 (0%) N (%)
same,Confusion grade 3,[4],1 (10%) N (%)
same,Confusion grade 4,[4],0 (0%) N (%)
same,Confusion grade 5,[4],0 (0%) N (%)
same,Fatigue grade 3,[4],1 (10%) N (%)
same,Fatigue grade 4,[4],0 (0%) N (%)
same,Fatigue grade 5,[4],0 (0%) N (%)
same,Febrile neutropenia grade 3,[4],1 (10%) N (%)
same,Febrile neutropenia grade 4,[4],0 (0%) N (%)
same,Febrile neutropenia grade 5,[4],0 (0%) N (%)
same,Hyperglycemia grade 3,[4],2 (20%) N (%)
same,Hyperglycemia grade 4,[4],0 (0%) N (%)
same,Hyperglycemia grade 5,[4],0 (0%) N (%)
same,Leukocytosis grade 3,[4],0 (0%) N (%)
same,Leukocytosis grade 4,[4],0 (0%) N (%)
same,Leukocytosis grade 5,[4],0 (0%) N (%)
same,Lymphocyte count decreased grade 3,[4],2 (20%) N (%)
same,Lymphocyte count decreased grade 4,[4],0 (0%) N (%)
same,Lymphocyte count decreased grade 5,[4],0 (0%) N (%)
same,Mucositis oral grade 3,[4],3 (30%) N (%)
same,Mucositis oral grade 4,[4],0 (0%) N (%)
same,Mucositis oral grade 5,[4],0 (0%) N (%)
same,"Neoplasms benign, mal, uncpec - Oth spec grade 3",[4],0 (0%) N (%)
same,"Neoplasms benign, mal, uncpec - Oth spec grade 4",[4],0 (0%) N (%)
same,"Neoplasms benign, mal, uncpec - Oth spec grade 5",[4],0 (0%) N (%)
same,Neutrophil count decreased grade 3,[4],0 (0%) N (%)
same,Neutrophil count decreased grade 4,[4],1 (10%) N (%)
same,Neutrophil count decreased grade 5,[4],0 (0%) N (%)
same,Platelet count decreased grade 3,[4],0 (0%) N (%)
same,Platelet count decreased grade 4,[4],1 (10%) N (%)
same,Platelet count decreased grade 5,[4],0 (0%) N (%)
same,Pneumonitis grade 3,[4],0 (0%) N (%)
same,Pneumonitis grade 4,[4],0 (0%) N (%)
same,Pneumonitis grade 5,[4],0 (0%) N (%)
same,"Resp, thoracic, mediastinal - Oth spec grade 3",[4],0 (0%) N (%)
same,"Resp, thoracic, mediastinal - Oth spec grade 4",[4],1 (10%) N (%)
same,"Resp, thoracic, mediastinal - Oth spec grade 5",[4],0 (0%) N (%)
same,White blood cell decreased grade 3,[4],0 (0%) N (%)
same,White blood cell decreased grade 4,[4],2 (20%) N (%)
same,White blood cell decreased grade 5,[4],0 (0%) N (%)
same,Abdominal pain grade 3,[5],1 (20%) N (%)
same,Abdominal pain grade 4,[5],0 (0%) N (%)
same,Abdominal pain grade 5,[5],0 (0%) N (%)
same,Anemia grade 3,[5],0 (0%) N (%)
same,Anemia grade 4,[5],0 (0%) N (%)
same,Anemia grade 5,[5],0 (0%) N (%)
same,Anorexia grade 3,[5],0 (0%) N (%)
same,Anorexia grade 4,[5],0 (0%) N (%)
same,Anorexia grade 5,[5],0 (0%) N (%)
same,Confusion grade 3,[5],0 (0%) N (%)
same,Confusion grade 4,[5],0 (0%) N (%)
same,Confusion grade 5,[5],0 (0%) N (%)
same,Fatigue grade 3,[5],0 (0%) N (%)
same,Fatigue grade 4,[5],0 (0%) N (%)
same,Fatigue grade 5,[5],0 (0%) N (%)
same,Febrile neutropenia grade 3,[5],0 (0%) N (%)
same,Febrile neutropenia grade 4,[5],0 (0%) N (%)
same,Febrile neutropenia grade 5,[5],0 (0%) N (%)
same,Hyperglycemia grade 3,[5],0 (0%) N (%)
same,Hyperglycemia grade 4,[5],0 (0%) N (%)
same,Hyperglycemia grade 5,[5],0 (0%) N (%)
same,Leukocytosis grade 3,[5],1 (20%) N (%)
same,Leukocytosis grade 4,[5],0 (0%) N (%)
same,Leukocytosis grade 5,[5],0 (0%) N (%)
same,Lymphocyte count decreased grade 3,[5],0 (0%) N (%)
same,Lymphocyte count decreased grade 4,[5],0 (0%) N (%)
same,Lymphocyte count decreased grade 5,[5],0 (0%) N (%)
same,Mucositis oral grade 3,[5],0 (0%) N (%)
same,Mucositis oral grade 4,[5],0 (0%) N (%)
same,Mucositis oral grade 5,[5],0 (0%) N (%)
same,"Neoplasms benign, mal, uncpec - Oth spec grade 3",[5],1 (20%) N (%)
same,"Neoplasms benign, mal, uncpec - Oth spec grade 4",[5],0 (0%) N (%)
same,"Neoplasms benign, mal, uncpec - Oth spec grade 5",[5],0 (0%) N (%)
same,Neutrophil count decreased grade 3,[5],0 (0%) N (%)
same,Neutrophil count decreased grade 4,[5],0 (0%) N (%)
same,Neutrophil count decreased grade 5,[5],0 (0%) N (%)
same,Platelet count decreased grade 3,[5],2 (40%) N (%)
same,Platelet count decreased grade 4,[5],1 (20%) N (%)
same,Platelet count decreased grade 5,[5],0 (0%) N (%)
same,Pneumonitis grade 3,[5],1 (20%) N (%)
same,Pneumonitis grade 4,[5],0 (0%) N (%)
same,Pneumonitis grade 5,[5],0 (0%) N (%)
same,"Resp, thoracic, mediastinal - Oth spec grade 3",[5],0 (0%) N (%)
same,"Resp, thoracic, mediastinal - Oth spec grade 4",[5],0 (0%) N (%)
same,"Resp, thoracic, mediastinal - Oth spec grade 5",[5],0 (0%) N (%)
same,White blood cell decreased grade 3,[5],0 (0%) N (%)
same,White blood cell decreased grade 4,[5],0 (0%) N (%)
same,White blood cell decreased grade 5,[5],0 (0%) N (%)
same,Abdominal pain grade 1,[6],0 (0) N (%)
same,Abdominal pain grade 2,[6],0 (0) N (%)
same,Abdominal pain grade 3,[6],1 (7) N (%)
same,Abdominal pain grade 4,[6],0 (0) N (%)
same,Abdominal pain grade 5,[6],0 (0) N (%)
same,Anal mucositis grade 1,[6],0 (0) N (%)
same,Anal mucositis grade 2,[6],1 (7) N (%)
same,Anal mucositis grade 3,[6],0 (0) N (%)
same,Anal mucositis grade 4,[6],0 (0) N (%)
same,Anal mucositis grade 5,[6],0 (0) N (%)
same,Anemia grade 1,[6],0 (0) N (%)
same,Anemia grade 2,[6],0 (0) N (%)
same,Anemia grade 3,[6],4 (27) N (%)
same,Anemia grade 4,[6],0 (0) N (%)
same,Anemia grade 5,[6],0 (0) N (%)
same,Anorexia grade 1,[6],0 (0) N (%)
same,Anorexia grade 2,[6],1 (7) N (%)
same,Anorexia grade 3,[6],1 (7) N (%)
same,Anorexia grade 4,[6],0 (0) N (%)
same,Anorexia grade 5,[6],0 (0) N (%)
same,Anxiety grade 1,[6],1 (7) N (%)
same,Anxiety grade 2,[6],0 (0) N (%)
same,Anxiety grade 3,[6],0 (0) N (%)
same,Anxiety grade 4,[6],0 (0) N (%)
same,Anxiety grade 5,[6],0 (0) N (%)
same,Aspartate aminotransferase increased grade 1,[6],1 (7) N (%)
